Data: ChEMBL document CHEMBL5528008, “Design and synthesis of the first PARP-1 and proteasome dual inhibitors to treat breast cancer” (Eur J Med Chem, 2024)
Active and inactive are the calls of the source. No cut-off for these calls is given here.

Experiments:
[1] = molecular target: T1, Poly [ADP-ribose] polymerase 1 (Homo sapiens, UniProt P09874); experiment: Inhibition of PARP-1 (unknown origin) assessed as fold change in inhibition using Femto-ECL as substrate preincubated for 2.7 hrs followed by substrate addition by chemiluminescence assay
[2] = system: BT-549; experiment: Synergistic antiproliferative activity against human BT-549 cells assessed as synergistic score in presence of Olaparib; assay type: functional
[3] = system: BT-549; experiment: Cytotoxicity against human BT-549 cells assessed as inhibition of cell growth incubated for 72 hrs by MTT assay; assay type: functional, cell-based; settings: BT-549, 72 h
[4] = system: MDA-MB-231; experiment: Cytotoxicity against human MDA-MB-231 cells assessed as inhibition of cell growth incubated for 72 hrs by MTT assay; assay type: functional, cell-based; settings: MDA-MB-231, 72 h
[5] = system: BT-549; experiment: Induction of DNA damage in human BT-549 cells assessed as increase in gamma-H2AX localization in nucleus at 0.125 uM incubated for 48 hrs by fluorescence confocal microscopic analysis; assay type: functional, cell-based
[6] = system: MCF7; experiment: Cytotoxicity against human MCF7 cells assessed as inhibition of cell growth incubated for 72 hrs by MTT assay; assay type: functional, cell-based; settings: MCF7, 72 h
[7] = system: BT-549; experiment: Synergistic antiproliferative activity against human BT-549 cells assessed as synergistic score in presence of Ixazomib; assay type: functional
[8] = system: BT-549; experiment: Induction of DNA damage in human BT-549 cells assessed as upregulation of gamma-H2AX level at 1 uM incubated for 48 hrs by immunoblotting analysis; assay type: functional, cell-based
[9] = system: BT-549; experiment: Induction of DNA damage in human BT-549 cells assessed as upregulation of gamma-H2AX level at 0.5 uM incubated for 48 hrs by immunoblotting analysis; assay type: functional, cell-based
[10] = system: BT-549; experiment: Induction in cell cycle arrest in human BT-549 cells assessed as upregulation of p21 expression at 0.05 uM incubated for 48 hrs by Western blotting analysis; assay type: functional, cell-based
[11] = system: BT-549; experiment: Inhibition of colony formation in human BT-549 cells assessed as reduction in colony number incubated for 14 days by crystal violet staining based analysis; assay type: functional, cell-based; settings: time 14.0 day
[12] = system: BT-549; experiment: Induction of apoptosis in human BT-549 cells assessed as upregulation of cleaved caspase-3 expression incubated for 48 hrs by Western blotting analysis; assay type: functional, cell-based
[13] = molecular target: T1, Poly [ADP-ribose] polymerase 1; experiment: Inhibition of PARP-1 in human BT-549 cells assessed as downregulation of BRCA1 mRNA expression incubated for 48 hrs by RT-qPCR analysis; assay type: cell-based
[14] = system: BT-549; experiment: Induction in cell cycle arrest in human BT-549 cells assessed as upregulation of p21 expression at 0.5 uM incubated for 48 hrs by Western blotting analysis; assay type: functional, cell-based
[15] = system: BT-549; experiment: Induction of apoptosis in human BT-549 cells assessed as increase in late apoptotic cells incubated for 48 hrs by Annexin V-FITC/PI staining based flow cytometric analysis; assay type: functional, cell-based
[16] = molecular target: T1, Poly [ADP-ribose] polymerase 1; experiment: Inhibition of PARP-1 in human BT-549 cells assessed as downregulation of P-ATM expression at 0.05 uM incubated for 48 hrs by immunoblotting analysis; assay type: cell-based
[17] = molecular target: T1, Poly [ADP-ribose] polymerase 1; experiment: Inhibition of PARP-1 in human BT-549 cells assessed as downregulation of RAD51 mRNA expression incubated for 48 hrs by RT-qPCR analysis; assay type: cell-based
[18] = system: BT-549; experiment: Induction in cell cycle arrest in human BT-549 cells assessed as downregulation of Cyclin A2 expression at 0.5 uM incubated for 48 hrs by Western blotting analysis; assay type: functional, cell-based
[19] = Antiproliferative activity against human COV362 cells assessed as fold change in inhibition of cell growth at 0.3 to 1.2 uM incubated for 72 hrs by MTT assay; assay type: functional; settings: dose 0.3-1.2 µM
[20] = system: NCI-H1299; experiment: Antiproliferative activity against human NCI-H1299 cells assessed as fold change in inhibition of cell growth at 0.3 to 1.2 uM incubated for 72 hrs by MTT assay; assay type: functional; settings: dose 0.3-1.2 µM
[21] = system: A549; experiment: Antiproliferative activity against human A549 cells assessed as fold change in inhibition of cell growth at 0.3 to 1.2 uM incubated for 72 hrs by MTT assay; assay type: functional; settings: dose 0.3-1.2 µM
[22] = system: ES-2; experiment: Antiproliferative activity against human ES2 cells assessed as fold change in inhibition of cell growth at 0.3 to 1.2 uM incubated for 72 hrs by MTT assay; assay type: functional; settings: dose 0.3-1.2 µM
[23] = molecular target: T1, Poly [ADP-ribose] polymerase 1; experiment: Inhibition of PARP-1 in human BT-549 cells assessed as downregulation of P-ATM expression at 0.5 uM incubated for 48 hrs by immunoblotting analysis; assay type: cell-based
[24] = system: MDA-MB-231; experiment: Antiproliferative activity against human MDA-MB-231 cells assessed as fold change in inhibition of cell growth at 0.3 to 1.2 uM incubated for 72 hrs by MTT assay; assay type: functional; settings: dose 0.3-1.2 µM
[25] = system: SK-OV-3; experiment: Antiproliferative activity against human SK-OV-3 cells assessed as fold change in inhibition of cell growth at 0.3 to 1.2 uM incubated for 72 hrs by MTT assay; assay type: functional; settings: dose 0.3-1.2 µM
[26] = molecular target: T1, Poly [ADP-ribose] polymerase 1; experiment: Inhibition of PARP-1 in human BT-549 cells assessed as downregulation of BRCA1 expression at 0.05 uM incubated for 48 hrs by immunoblotting analysis; assay type: cell-based
[27] = molecular target: T1, Poly [ADP-ribose] polymerase 1; experiment: Inhibition of PARP-1 in human BT-549 cells assessed as downregulation of RAD51 expression at 0.05 uM incubated for 48 hrs by immunoblotting analysis; assay type: cell-based
[28] = system: BT-549; experiment: Induction in cell cycle arrest in human BT-549 cells assessed as downregulation of CDK1 expression at 0.05 uM incubated for 48 hrs by Western blotting analysis; assay type: functional, cell-based
[29] = system: BT-549; experiment: Induction of DNA damage in human BT-549 cells assessed as decrease in BRCA1 localization in nucleus at 0.125 uM incubated for 48 hrs by fluorescence confocal microscopic analysis; assay type: functional, cell-based
[30] = system: BT-549; experiment: Inhibition of colony formation in human BT-549 cells assessed as reduction in colony size incubated for 14 days by crystal violet staining based analysis; assay type: functional, cell-based; settings: time 14.0 day
[31] = molecular target: T1, Poly [ADP-ribose] polymerase 1; experiment: Inhibition of PARP-1 in human BT-549 cells assessed as downregulation of BRCA1 expression at 0.5 uM incubated for 48 hrs by immunoblotting analysis; assay type: cell-based
[32] = system: PC-3; experiment: Antiproliferative activity against human PC-3 cells assessed as fold change in inhibition of cell growth at 0.3 to 1.2 uM incubated for 72 hrs by MTT assay; assay type: functional; settings: dose 0.3-1.2 µM
[33] = system: BT-549; experiment: Induction of DNA damage in human BT-549 cells assessed as decrease in polyubiquitination in nucleus at 0.125 uM incubated for 48 hrs by fluorescence confocal microscopic analysis; assay type: functional, cell-based
[34] = system: BT-549; experiment: Induction of DNA damage in human BT-549 cells assessed as increase in polyubiquitination at 0.125 uM incubated for 48 hrs by fluorescence confocal microscopic analysis; assay type: functional, cell-based
[35] = molecular target: 20S proteasome; experiment: Inhibition of 20S proteasome (unknown origin) using […] as substrate; assay type: protein-complex assay, Homo sapiens
[36] = system: BT-549; experiment: Antiproliferative activity against human BT-549 cells assessed as fold change in inhibition of cell growth at 0.3 to 1.2 uM incubated for 72 hrs by MTT assay; assay type: functional; settings: dose 0.3-1.2 µM
[37] = system: HEY; experiment: Antiproliferative activity against human HEY cells assessed as fold change in inhibition of cell growth at 0.3 to 1.2 uM incubated for 72 hrs by MTT assay; assay type: functional; settings: dose 0.3-1.2 µM
[38] = molecular target: T1, Poly [ADP-ribose] polymerase 1; experiment: Inhibition of PARP-1 in human BT-549 cells assessed as downregulation of FANCD2 mRNA expression incubated for 48 hrs by RT-qPCR analysis; assay type: cell-based
[39] = system: BT-549; experiment: Induction of apoptosis in human BT-549 cells assessed as upregulation of cleaved PARP expression incubated for 48 hrs by Western blotting analysis; assay type: functional, cell-based
[40] = system: BT-549; experiment: Induction of DNA damage in human BT-549 cells assessed as decrease in ubiquitin localization in nucleus at 0.125 uM incubated for 48 hrs by fluorescence confocal microscopic analysis; assay type: functional, cell-based
[41] = system: MCF7; experiment: Antiproliferative activity against human MCF7 cells assessed as fold change in inhibition of cell growth at 0.3 to 1.2 uM incubated for 72 hrs by MTT assay; assay type: functional; settings: dose 0.3-1.2 µM
[42] = system: BT-549; experiment: Induction of DNA damage in human BT-549 cells assessed as upregulation of gamma-H2AX level at 0.05 uM incubated for 48 hrs by immunoblotting analysis; assay type: functional, cell-based
[43] = molecular target: T1, Poly [ADP-ribose] polymerase 1; experiment: Inhibition of PARP-1 (unknown origin) using Femto-ECL as substrate preincubated for 2.7 hrs followed by substrate addition by chemiluminescence assay
[44] = system: BT-549; experiment: Induction of apoptosis in human BT-549 cells assessed as increase in early apoptotic cells incubated for 48 hrs by Annexin V-FITC/PI staining based flow cytometric analysis; assay type: functional, cell-based
[45] = system: BT-549; experiment: Induction in cell cycle arrest in human BT-549 cells assessed as downregulation of CDK1 expression at 0.5 uM incubated for 48 hrs by Western blotting analysis; assay type: functional, cell-based
[46] = system: BT-549; experiment: Induction in cell cycle arrest in human BT-549 cells assessed as downregulation of Cyclin A2 expression at 0.05 uM incubated for 48 hrs by Western blotting analysis; assay type: functional, cell-based
[47] = molecular target: T1, Poly [ADP-ribose] polymerase 1; experiment: Inhibition of PARP-1 in human BT-549 cells assessed as downregulation of BRCA2 mRNA expression incubated for 48 hrs by RT-qPCR analysis; assay type: cell-based
[48] = molecular target: T1, Poly [ADP-ribose] polymerase 1; experiment: Inhibition of PARP-1 in human BT-549 cells assessed as downregulation of RAD51 expression at 0.5 uM incubated for 48 hrs by immunoblotting analysis; assay type: cell-based

T1 sequence (P09874 whole entry): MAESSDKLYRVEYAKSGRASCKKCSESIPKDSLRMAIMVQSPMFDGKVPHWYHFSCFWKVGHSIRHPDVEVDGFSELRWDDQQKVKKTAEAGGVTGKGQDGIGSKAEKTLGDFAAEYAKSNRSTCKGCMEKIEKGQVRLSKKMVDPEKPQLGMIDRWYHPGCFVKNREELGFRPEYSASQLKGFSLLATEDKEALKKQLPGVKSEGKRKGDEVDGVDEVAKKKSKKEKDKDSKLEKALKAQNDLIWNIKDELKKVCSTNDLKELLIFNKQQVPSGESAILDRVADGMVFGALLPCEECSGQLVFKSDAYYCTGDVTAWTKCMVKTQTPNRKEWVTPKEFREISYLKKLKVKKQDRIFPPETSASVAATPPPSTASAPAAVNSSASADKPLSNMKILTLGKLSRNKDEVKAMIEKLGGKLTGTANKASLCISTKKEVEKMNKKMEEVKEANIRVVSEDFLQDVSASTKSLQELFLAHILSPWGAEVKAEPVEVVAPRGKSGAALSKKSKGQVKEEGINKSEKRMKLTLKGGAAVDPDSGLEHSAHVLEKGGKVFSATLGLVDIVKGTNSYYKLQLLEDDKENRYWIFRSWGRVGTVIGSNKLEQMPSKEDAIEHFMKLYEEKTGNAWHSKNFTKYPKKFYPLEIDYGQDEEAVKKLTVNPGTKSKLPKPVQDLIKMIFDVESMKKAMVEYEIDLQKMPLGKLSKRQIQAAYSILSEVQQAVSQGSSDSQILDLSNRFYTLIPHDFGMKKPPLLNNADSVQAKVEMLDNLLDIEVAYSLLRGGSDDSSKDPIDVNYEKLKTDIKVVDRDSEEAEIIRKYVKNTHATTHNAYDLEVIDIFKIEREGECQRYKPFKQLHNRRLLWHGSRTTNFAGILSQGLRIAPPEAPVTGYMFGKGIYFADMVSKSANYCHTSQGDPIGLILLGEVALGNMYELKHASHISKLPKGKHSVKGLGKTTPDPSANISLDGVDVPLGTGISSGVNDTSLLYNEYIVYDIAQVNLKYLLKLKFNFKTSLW

## CC(C)C[C@H](NC(=O)[C@H](CC(C)C)NC(=O)c1cc(Cc2nn(C)c(=O)c3ccccc23)ccc1F)B1O[C@@H]2C[C@@H]3C[C@@H](C3(C)C)[C@]2(C)O1
[1]
  fold change (FC): 100

## CC(C)C[C@H](NC(=O)CNC(=O)c1cc(Cl)ccc1Cl)B(O)O [IXAZOMIB]
[2]
  Activity: 12.191
[3]
  IC50: 0.227 µM
[4]
  IC50: 0.0426 µM
[5]
  Activity: inactive
[6]
  IC50: 0.135 µM

## O=C(c1cc(Cc2n[nH]c(=O)c3ccccc23)ccc1F)N1CCN(C(=O)C2CC2)CC1 [OLAPARIB]
[7]
  Activity: 12.407
[3]
  IC50: 6.61 µM
[4]
  IC50: > 30 µM
[6]
  IC50: 10.6 µM
[8]
  Activity: Active
[9]
  Activity: Active

## CC(C)C[C@H](NC(=O)[C@H](CC(C)C)NC(=O)c1cc(Cc2n[nH]c(=O)c3ccccc23)ccc1F)B1O[C@@H]2C[C@@H]3C[C@@H](C3(C)C)[C@]2(C)O1
[10]
  Activity: Active
[11]
  inhibition: Dose-Dependent Effect
[12]
  Activity: Dose-Dependent Effect
[13]
  inhibition: Dose-Dependent Effect
[14]
  Activity: Active
[15]
  Activity: Dose-Dependent Effect
[16]
  inhibition: Active
[17]
  inhibition: Dose-Dependent Effect
[18]
  Activity: Active
[19]
  fold change (FC): 1
[20]
  fold change (FC): 1
[21]
  fold change (FC): 1
[22]
  fold change (FC): 1
[23]
  inhibition: Active
[24]
  fold change (FC): 10
[25]
  fold change (FC): 1
[26]
  inhibition: Active
[27]
  inhibition: Active
[3]
  IC50: 0.0178 µM
[28]
  Activity: Active
[4]
  IC50: 0.0312 µM
[29]
  Activity: Active
[5]
  Activity: Active
[30]
  inhibition: Dose-Dependent Effect
[31]
  inhibition: Active
[32]
  fold change (FC): 1
[33]
  Activity: Active
[34]
  Activity: Active
[35]
  IC50: 0.0609 µM
[36]
  fold change (FC): 10
[37]
  fold change (FC): 1
[38]
  inhibition: Dose-Dependent Effect
[39]
  Activity: Dose-Dependent Effect
[6]
  IC50: 0.0495 µM
[40]
  Activity: Active
[41]
  fold change (FC): 10
[42]
  Activity: Active
[43]
  IC50: 0.137 µM
[44]
  Activity: Dose-Dependent Effect
[45]
  Activity: Active
[46]
  Activity: Active
[47]
  inhibition: Dose-Dependent Effect
[9]
  Activity: Active
[48]
  inhibition: Active
